Key:
Format in all cases: in vivo
[1] = tested on: Plutella xylostella (Diamond Back Moth); assay: Plutella xylostella (diamond back moth), treated artificial diet; settings: 120 h, application rate of 200 ppm, L2 larvae on artificial diet, 5 days after infestation, read-out: effect in at least one of the two categories (mortality or growth inhibition)
Experimental: Example B6: Plutella xylostella (Diamond Back Moth)
24-well microtiter plates with artificial diet were treated with aqueous test solutions prepared from 10′000 ppm DMSO stock solutions by pipetting. After drying, the plates were infested with L2 larvae (10 to 15 per well). The samples were assessed for mortality and growth inhibition in comparison to untreated samples 5 days after infestation.
The following compounds gave an effect of at least 80% in at least one of the two categories (mortality or growth inhibition) at an application rate of 200 ppm: […]

[2] = tested on: Spodoptera littoralis (Egyqptian Cotton Leaf Worm); assay: Spodoptera littoralis (Egyptian cotton leaf worm), sprayed cotton leaf discs; settings: foliar, 72 h, application rate of 200 ppm, L1 larvae on cotton leaf discs, 3 days after infestation
Experimental: Example B7: Spodoptera littoralis (Egyqptian Cotton Leaf Worm)
Cotton leaf discs were placed on agar in 24-well microtiter plates and sprayed with aqueous test solutions prepared from 10′000 ppm DMSO stock solutions. After drying the leaf discs were infested with five L1 larvae. The samples were assessed for mortality, anti-feedant effect, and growth inhibition in comparison to untreated samples 3 days after infestation. Control of Spodoptera littoralis by a test sample is when at least one of mortality, anti-feedant effect, and growth inhibition is higher than the untreated sample.

[3] = tested on: Diabrotica balteata (Corn Root Worm); assay: Diabrotica balteata (corn root worm), sprayed maize sprouts; settings: 96 h, application rate of 200 ppm, L2 larvae on maize sprouts, 4 days after infestation
Experimental: Example B2: Diabrotica balteata (Corn Root Worm)
Maize sprouts, placed on an agar layer in 24-well microtiter plates were treated with aqueous test solutions prepared from 10′000 ppm DMSO stock solutions by spraying. After drying, the plates were infested with L2 larvae (6 to 10 per well). The samples were assessed for mortality and growth inhibition in comparison to untreated samples 4 days after infestation.

[4] = tested on: Myzus persicae (Green Peach Aphid); assay: Myzus persicae (green peach aphid), sprayed sunflower leaf discs; settings: foliar, 144 h, application rate of 200 ppm, mixed ages on sunflower leaf discs, 6 days after infestation
Experimental: Example B4: Myzus persicae (Green Peach Aphid)
Sunflower leaf discs were placed on agar in a 24-well microtiter plate and sprayed with aqueous test solutions prepared from 10′000 ppm DMSO stock solutions. After drying, the leaf discs were infested with an aphid population of mixed ages. The samples were assessed for mortality 6 days after infestation.

[5] = tested on: Euschistus heros (Neotropical Brown Stink Bug); assay: Euschistus heros (neotropical brown stink bug), sprayed soybean leaf; settings: 120 h, application rate of 200 ppm, N-2 nymphs on soybean leaf, 5 days after infestation
Experimental: Example B3: Euschistus heros (Neotropical Brown Stink Bug)
Soybean leaf on agar in 24-well microtiter plates were sprayed with aqueous test solutions prepared from 10′000 ppm DMSO stock solutions. After drying the leaf were infested with N-2 nymphs. The samples were assessed for mortality in comparison to untreated samples 5 days after infestation.

CCS(=O)(=O)c1cc(-c2ccc(OC)nc2)cnc1-c1nc2cc(C(F)(F)F)ncc2n1C [Compound P1, 2-[3-ethylsulfonyl-5-(6-methoxy-3-pyridyl)-2-pyridyl]-3-methyl-6-(trifluoromethyl)imidazo[4,5-c]pyridine]
≥ 80%: percent effect (mortality or growth inhibition) at 200 ppm [1] | percent control (mortality, anti-feedant effect or growth inhibition) at 200 ppm [2] | mortality at 200 ppm [3] | mortality at 200 ppm [4]

CCS(=O)(=O)c1cc(-c2cnc(Cl)c(C)c2)cnc1-c1nc2cc(C(F)(F)F)ncc2n1C [Compound P4]
≥ 80%: percent effect (mortality or growth inhibition) at 200 ppm [1] | mortality at 200 ppm [5] | percent control (mortality, anti-feedant effect or growth inhibition) at 200 ppm [2] | mortality at 200 ppm [4]

CCS(=O)(=O)c1cc(-c2cncc3ccccc23)cnc1-c1nc2cc(C(F)(F)F)ncc2n1C [Compound P7]
≥ 80%: percent effect (mortality or growth inhibition) at 200 ppm [1] | percent control (mortality, anti-feedant effect or growth inhibition) at 200 ppm [2] | mortality at 200 ppm [3]

CCS(=O)(=O)c1cc(-c2ccc(-c3ccc(F)cc3)nc2)cnc1-c1nc2cc(C(F)(F)F)ncc2n1C [Compound P12]
≥ 80%: percent effect (mortality or growth inhibition) at 200 ppm [1] | mortality at 200 ppm [5] | percent control (mortality, anti-feedant effect or growth inhibition) at 200 ppm [2] | mortality at 200 ppm [3] | mortality at 200 ppm [4]

CCSc1cc(-n2nc(C)cc2C)cnc1-c1nc2cc(C(F)(F)F)ncc2n1C [Compound P13]
≥ 80%: mortality at 200 ppm [3]

CCSc1cc(-n2cc(Cl)cn2)cnc1-c1nc2cc(C(F)(F)F)ncc2n1C [Compound P14, 2-[5-(4-chloropyrazol-1-yl)-3-ethylsulfanyl-2-pyridyl]-3-methyl-6-(trifluoromethyl)imidazo[4,5-c]pyridine]
≥ 80%: percent effect (mortality or growth inhibition) at 200 ppm [1] | percent control (mortality, anti-feedant effect or growth inhibition) at 200 ppm [2] | mortality at 200 ppm [3]

CCS(=O)(=O)c1cc(-n2nc(C)cc2C)cnc1-c1nc2cc(C(F)(F)F)ncc2n1C [Compound P15]
≥ 80%: percent effect (mortality or growth inhibition) at 200 ppm [1] | mortality at 200 ppm [5] | percent control (mortality, anti-feedant effect or growth inhibition) at 200 ppm [2] | mortality at 200 ppm [3] | mortality at 200 ppm [4]

CCS(=O)(=O)c1cc(-n2ncc3ccccc32)cnc1-c1nc2cc(C(F)(F)F)ncc2n1C [Compound P24]
≥ 80%: percent effect (mortality or growth inhibition) at 200 ppm [1] | percent control (mortality, anti-feedant effect or growth inhibition) at 200 ppm [2]

CCS(=O)(=O)c1cc(-n2nc(C(F)(F)F)cc2-c2ccc(F)cc2)cnc1-c1nc2cc(C(F)(F)F)ncc2n1C [Compound P28]
≥ 80%: percent effect (mortality or growth inhibition) at 200 ppm [1] | percent control (mortality, anti-feedant effect or growth inhibition) at 200 ppm [2] | mortality at 200 ppm [3]

CCS(=O)(=O)c1cc(-n2ncc3cnc(C(F)(F)F)cc32)cnc1-c1nc2cc(C(F)(F)F)ncc2n1C [Compound P29]
≥ 80%: percent effect (mortality or growth inhibition) at 200 ppm [1] | percent control (mortality, anti-feedant effect or growth inhibition) at 200 ppm [2] | mortality at 200 ppm [3]

CCS(=O)(=O)c1cc(-c2c(C(F)(F)F)n[nH]c2C)cnc1-c1nc2cc(C(F)(F)F)ncc2n1C [Compound P30]
≥ 80%: mortality at 200 ppm [5] | mortality at 200 ppm [3] | mortality at 200 ppm [4]

CCS(=O)(=O)c1cc(-c2cnc3nc(C(F)(F)F)cnn23)cnc1-c1nc2cc(C(F)(F)F)ncc2n1C [Compound P38]
≥ 80%: percent effect (mortality or growth inhibition) at 200 ppm [1] | mortality at 200 ppm [5] | percent control (mortality, anti-feedant effect or growth inhibition) at 200 ppm [2] | mortality at 200 ppm [3]

CCS(=O)(=O)c1cc(-c2ccc3nccn3c2C)cnc1-c1nc2cc(C(F)(F)F)ncc2n1C [Compound P42]
≥ 80%: mortality at 200 ppm [5] | mortality at 200 ppm [4]

CCS(=O)(=O)c1cc(-c2sccc2C)cnc1-c1nc2cc(C(F)(F)F)ncc2n1C [Compound P48]
≥ 80%: percent effect (mortality or growth inhibition) at 200 ppm [1] | percent control (mortality, anti-feedant effect or growth inhibition) at 200 ppm [2] | mortality at 200 ppm [3]

CCS(=O)(=O)c1cc(-c2cnc3ccccn23)cnc1-c1nc2cc(C(F)(F)F)ncc2n1C [Compound P51]
≥ 80%: percent effect (mortality or growth inhibition) at 200 ppm [1] | mortality at 200 ppm [5] | percent control (mortality, anti-feedant effect or growth inhibition) at 200 ppm [2] | mortality at 200 ppm [4]

CCS(=O)(=O)c1cc(-c2ccc3ccccc3n2)cnc1-c1nc2cc(C(F)(F)F)ncc2n1C [Compound P62]
≥ 80%: percent effect (mortality or growth inhibition) at 200 ppm [1] | mortality at 200 ppm [5] | mortality at 200 ppm [4]

CCS(=O)(=O)c1cc(-c2ncc(N)nc2C)cnc1-c1nc2cc(C(F)(F)F)ncc2n1C [Compound P63]
≥ 80%: percent effect (mortality or growth inhibition) at 200 ppm [1] | mortality at 200 ppm [5] | percent control (mortality, anti-feedant effect or growth inhibition) at 200 ppm [2] | mortality at 200 ppm [4]

CCS(=O)(=O)c1cc(-c2ccsc2C)cnc1-c1nc2cc(C(F)(F)F)ncc2n1C [Compound P68]
≥ 80%: mortality at 200 ppm [5] | percent control (mortality, anti-feedant effect or growth inhibition) at 200 ppm [2]

CCS(=O)(=O)c1cc(-c2ccc(C)s2)cnc1-c1nc2cc(C(F)(F)F)ncc2n1C [Compound P69]
≥ 80%: percent effect (mortality or growth inhibition) at 200 ppm [1] | mortality at 200 ppm [5] | percent control (mortality, anti-feedant effect or growth inhibition) at 200 ppm [2] | mortality at 200 ppm [4]

CCS(=O)(=O)c1cc(-c2ccncc2C#N)cnc1-c1nc2cc(C(F)(F)F)ncc2n1C [Compound P73]
≥ 80%: percent effect (mortality or growth inhibition) at 200 ppm [1] | mortality at 200 ppm [5] | mortality at 200 ppm [3] | mortality at 200 ppm [4]

CCS(=O)(=O)c1cc(-c2ccc(SC)nc2)cnc1-c1nc2cc(C(F)(F)F)ncc2n1C [Compound P75]
≥ 80%: percent effect (mortality or growth inhibition) at 200 ppm [1] | mortality at 200 ppm [5] | mortality at 200 ppm [3] | mortality at 200 ppm [4]

CCS(=O)(=O)c1cc(-c2ccc3[nH]c(=O)[nH]c3c2)cnc1-c1nc2cc(C(F)(F)F)ncc2n1C [Compound P76]
≥ 80%: mortality at 200 ppm [3]

CCS(=O)(=O)c1cc(-c2cc(C)oc2C#N)cnc1-c1nc2cc(C(F)(F)F)ncc2n1C [Compound P78]
≥ 80%: mortality at 200 ppm [3] | mortality at 200 ppm [4]

CCS(=O)(=O)c1cc(-c2cnc(O)nc2O)cnc1-c1nc2cc(C(F)(F)F)ncc2n1C [Compound P79]
≥ 80%: percent effect (mortality or growth inhibition) at 200 ppm [1]

CCS(=O)(=O)c1cc(-c2ncc(OC)cn2)cnc1-c1nc2cc(C(F)(F)F)ncc2n1C [Compound P97]
≥ 80%: percent effect (mortality or growth inhibition) at 200 ppm [1] | mortality at 200 ppm [5] | percent control (mortality, anti-feedant effect or growth inhibition) at 200 ppm [2] | mortality at 200 ppm [4]

CCS(=O)(=O)c1cc(-c2ccnc(C#N)c2)cnc1-c1nc2cc(C(F)(F)F)ncc2n1C [Compound P99]
≥ 80%: percent effect (mortality or growth inhibition) at 200 ppm [1] | mortality at 200 ppm [5] | mortality at 200 ppm [3]

CCS(=O)(=O)c1cc(-c2ccnc(C#N)n2)cnc1-c1nc2cc(C(F)(F)F)ncc2n1C [Compound P107]
≥ 80%: percent effect (mortality or growth inhibition) at 200 ppm [1] | percent control (mortality, anti-feedant effect or growth inhibition) at 200 ppm [2] | mortality at 200 ppm [3]
